Results as given in patent US20150223465A1, “COMPOSITION CONTAINING 3-CYCLOPROPYL-1-ENYL-PROPANOIC ACID SALTS AND A CARRIER” (Yissum Research Development Company of the Hebrew …, priority 2012, published 2015).

Tests used:
cut carnation flowers [1] = assay: Delaying senescence of cut carnation flowers: loading 24 h in CPAS solution, then 2 ppm ethylene for 24 h, visual inspection/photographs; assay type: in vivo, carnation (Dianthus caryophyllus); design: key to Results (ethylene antagonizing effect of CPAS by visual inspection): The result “−” means no ethylene antagonizing effect by visual inspection.; The result “+++” means high ethylene antagonizing effect by visual inspection.; The result “++++” means very high ethylene antagonizing effect by visual inspection
From the text: The ethylene antagonizing effect of composition described herein can be assessed by its effect of delaying senescence of cut plants, such as cut flowers. Some embodiments of the present invention are based on the use of the composition described herein to treat cut flowers for delaying senescence of the cut flowers.
Cut Flowers: Unless otherwise noted, carnation flowers grown in a greenhouse were harvested at the beginning of flower opening stage, early in the morning, and were immediately brought to the laboratory. The flowers were either processed immediately or stored in a cold room (4° C.) for 1 to 5 days as required.
(§1) Treatment Procedure: The flower stems were cut under tap water to the desired lengths (15 cm-55 cm). Four flowers for each treatment group (of two flowers per each groups) were loaded in a 20 mL aqueous treatment solution (or “loading solution”) for 24 hours. The treatment solution was placed in a 35 mL tube. The loading solutions of CPAS in buffers were prepared in distilled water, as described hereinafter. At the end of CPAS loading, the flowers were transferred to tap water for 1 to 4 days until the cut flowers open. The cut flowers were then exposed to 2 ppm ethylene for 24 hours. Control cut flowers were loaded in a control solution without CPAS in the same manner as the treated cut flowers, and were thereafter exposed to ethylene or air. At the end of ethylene exposure, the flowers were ventilated and left in tap water under controlled conditions (a temperature of 22° C., a relative humidity of 80%, and continuous fluorescent light) for additional 5 days for senescence assessment.

cut carnation flowers [2] = assay: Flower diameter of cut carnations after CPAS loading and ethylene exposure; assay type: in vivo, carnation (Dianthus caryophyllus)
Experimental: as §1
Flower Diameter: In some experiments, flower diameter was determined according to the method described in Goren et al., Plant Growth Regulation 65:327-334 (2011), to assess flower quality.

cut carnation flowers [3] = assay: Water uptake of treated cut flowers; details: 60 or 120 ppm CPAS in 20 mM NaHCO3 pH 8.2; 36 cm stems; 48 hours after termination of ethylene exposure (2 ppm, 24 h)
Experimental: Water Uptake: The uptake of water by cut flowers was measured after CPAS loading and after ethylene exposure (exposure to 2 ppm ethylene for 24 hours, unless otherwise indicated). The aqueous treatment solution was maintained at 20 mL by addition of tap water after each treatment.
Aqueous treatment solutions of CPAS were prepared and tested, each of which contained 0, 60 or 120 ppm of CPAS in 20 mM NaHCO3 (pH 8.2). Cut flowers (36 cm long stems) were treated according to the treatment procedure described above.

O=C([O-])CCC1=CC1.[Na+] [CPAS, 3-cyclopropyl-1-enyl-propanoic acid salt]
senescence of cut flowers (cut carnation flowers [1]; 36 cm stems, 60 and 120 ppm CPAS in Na-phosphate buffer (20 mM) containing NaHCO3 (60 mM), pH 7.2): delayed senescence | flower senescence (cut carnation flowers [1]; 60 or 120 ppm CPAS in 20 mM Na2CO3/NaHCO3 buffer pH 9.4, 36 cm stems): delayed flower senescence | flower senescence (cut carnation flowers [1]; 120 ppm CPAS in 20 mM NaHCO3 pH 8.2, 36 cm stems): delayed flower senescence | Results (ethylene antagonizing effect of CPAS by visual inspection) (cut carnation flowers [1]; CPAS sodium salt 20-120 ppm in Na2CO3/NaHCO3 buffer 20 mM pH 9.2-9.4): ++++ | Results (ethylene antagonizing effect of CPAS by visual inspection) (cut carnation flowers [1]; CPAS sodium salt 20-120 ppm in Na-Phosphate buffer 20 mM pH 7.6): − | Results (ethylene antagonizing effect of CPAS by visual inspection) (cut carnation flowers [1]; CPAS sodium salt 20-120 ppm in NaHCO3 20 mM pH 8.2): +++ | senescence of cut flowers (cut carnation flowers [1]; CPAS sodium salt 20-160 ppm in Glycine/NaOH buffer 20 mM pH 8.8, 36 cm stems, loading 24 h): no effect | senescence of cut flowers (cut carnation flowers [1]; CPAS sodium salt 20-160 ppm in H3BO3/NaOH buffer 20 mM pH 9.2, 36 cm stems, loading 24 h): no effect | senescence of cut flowers (cut carnation flowers [1]; CPAS sodium salt 20-160 ppm in Na2CO3/NaHCO3 buffer 20 mM pH 9.4, 36 cm stems, loading 24 h): showed delayed senescence | senescence of cut flowers (cut carnation flowers [1]; stem length 15 cm, 40, 60 and 120 ppm CPAS in 20 mM NaHCO3 pH 8.2): showed delayed senescence | senescence of cut flowers (cut carnation flowers [1]; stem length 36 cm, 120 mM CPAS (so in the source) in 20 mM NaHCO3 pH 8.2): showed delayed senescence | senescence of cut flowers (cut carnation flowers [1]; stem length 55 cm, 120 mM CPAS (so in the source) in 20 mM NaHCO3 pH 8.2): No delayed senescence | senescence of cut flowers (cut carnation flowers [1]; stem length 55 cm, 60 or 120 ppm CPAS in 60 mM Na2CO3/NaHCO3 buffer pH 9.4): showed delayed senescence | senescence of cut flowers (cut carnation flowers [1]; stem length 55 cm, 120 ppm CPAS in 60 mM NaHCO3 pH 8.2): showed delayed senescence | senescence of cut flowers as measured by flower diameter (cut carnation flowers [2]; 55 cm stems, 100, 120 or 140 ppm CPAS in Na-phosphate or Na-phosphate/citrate buffer containing NaHCO3): delayed senescence was generally observed | effect of NaHCO3 concentration (60 or 80 mM) on treatment results (cut carnation flowers [2]; 55 cm stems, CPAS in Na-phosphate buffer (20 mM) containing NaHCO3): did not significantly affect the treatment results | effect of NaHCO3 concentration (60 or 80 mM) on treatment results (cut carnation flowers [2]; 55 cm stems, CPAS in Na-phosphate/citrate buffer (20 mM) containing NaHCO3): 80 mM NaHCO3 yielding better treatment results than 60 mM NaHCO3 | senescence of cut flowers as measured by flower diameter (cut carnation flowers [2]; stem length 55 cm, 80 or 120 ppm CPAS in 40, 60 or 80 mM Na2CO3/NaHCO3 buffer): delayed senescence | senescence of cut flowers as measured by flower diameter (cut carnation flowers [2]; stem length 55 cm, 80 ppm CPAS in 80 mM NaHCO3): delayed senescence | ethylene antagonizing effect compared among NaHCO3 concentrations (cut carnation flowers [2]; stem length 55 cm, 120 ppm CPAS in 60 mM NaHCO3 versus 40 and 80 mM): highest ethylene antagonizing effect | senescence of cut flowers as measured by flower diameter (cut carnation flowers [2]; stem length 55 cm, 120 ppm CPAS in 40, 60 or 80 mM NaHCO3): delayed senescence | water uptake of flowers (cut carnation flowers [3]): increased water uptake
